# Measurements taken from US20170190671A1, “BIS(ARYL)CATECHOL DERIVATIVES AS HERBICIDES” (E I DU PONT DE NEMOURS AND COMPANY, priority 2014, published 2017).
# Key:
# Type in all cases: in vivo
# [1] = system: Italian ryegrass (Lolium multiflorum); test: Test A postemergence; settings: 0 to 100 scale
# Outline: (§1)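 Visual 0–100 rating (100 = complete control) taken about 10 d post-treatment relative to untreated checks. Preemergence: directed soil spray on sown loam/sand pots. Postemergence: seedlings 2–10 cm, 1–2 leaf. Non-phytotoxic solvent formulation with surfactant.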
# [2] = system: ragweed (common ragweed, Ambrosia elatior); test: Test A postemergence; settings: 0 to 100 scale
# Outline: as §1
# [3] = system: corn (Zea mays); test: Test A postemergence; settings: 0 to 100 scale
# Outline: as §1
# [4] = system: giant foxtail (Setaria faberii); test: Test A postemergence; settings: 0 to 100 scale
# Outline: as §1
# [5] = system: blackgrass (Alopecurus myosuroides); test: Test A postemergence; settings: 0 to 100 scale
# Outline: as §1
# [6] = system: galium (catchweed bedstraw, Galium aparine); test: Test A postemergence; settings: 0 to 100 scale
# Outline: as §1
# [7] = system: pigweed (Amaranthus retroflexus); test: Test A postemergence; settings: 0 to 100 scale
# Outline: as §1
# [8] = system: kochia (Kochia scoparia); test: Test A postemergence; settings: 0 to 100 scale
# Outline: as §1
# [9] = system: wheat (Triticum aestivum); test: Test A postemergence; settings: 0 to 100 scale
# Outline: as §1
# [10] = system: barnyardgrass (Echinochloa crus-galli); test: Test A postemergence; settings: 0 to 100 scale
# Outline: as §1
# [11] = system: ducksalad (Heteranthera limosa); test: Test B flooded paddy; settings: 250 g ai/ha, Flood, 13 to 15 days, scale 0 (no effect) to 100 (complete control)
# Outline: (§2)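 Pots were flooded to 3 cm above the soil surface at treatment, compound applied directly to the paddy water, and that depth held throughout. Plants were kept in a greenhouse for 13 to 15 days, then visually rated against untreated controls.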
# [12] = system: rice (Oryza sativa); test: Test B flooded paddy; settings: 250 g ai/ha, Flood, 13 to 15 days, scale 0 (no effect) to 100 (complete control)
# Outline: as §2
# [13] = system: sedge, umbrella (small-flower umbrella sedge, Cyperus difformis); test: Test B flooded paddy; settings: 250 g ai/ha, Flood, 13 to 15 days, scale 0 (no effect) to 100 (complete control)
# Outline: as §2
# [14] = system: barnyardgrass (Echinochloa crus-galli); test: Test B flooded paddy; settings: 250 g ai/ha, Flood, 13 to 15 days, scale 0 (no effect) to 100 (complete control)
# Outline: as §2
# [15] = system: Italian ryegrass (Lolium multiflorum); test: Test A preemergence; settings: 0 to 100 scale (0 no effect, 100 complete control)
# Outline: as §1
# [16] = system: ragweed (common ragweed, Ambrosia elatior); test: Test A preemergence; settings: 0 to 100 scale (0 no effect, 100 complete control)
# Outline: as §1
# [17] = system: giant foxtail (Setaria faberii); test: Test A preemergence; settings: 0 to 100 scale (0 no effect, 100 complete control)
# Outline: as §1
# [18] = system: pigweed (Amaranthus retroflexus); test: Test A preemergence; settings: 0 to 100 scale (0 no effect, 100 complete control)
# Outline: as §1
# [19] = system: kochia (Kochia scoparia); test: Test A preemergence; settings: 0 to 100 scale (0 no effect, 100 complete control)
# Outline: as §1
# [20] = system: barnyardgrass (Echinochloa crus-galli); test: Test A preemergence
# Outline: as §1
structure (smiles),measurement,setting,value
Fc1ccc(F)c(Oc2ncc(C(F)(F)F)cn2)c1Oc1ncc(Cl)cn1 [Compound 25],"Plant response rating, Ryegrass, Italian",[1]; 31 g ai/ha,0
same,"Plant response rating, Ryegrass, Italian",[1]; 125 g ai/ha,50
same,"Plant response rating, Ragweed",[2]; 31 g ai/ha,20
same,"Plant response rating, Ragweed",[2]; 125 g ai/ha,30
same,"Plant response rating, Corn",[3]; 31 g ai/ha,10
same,"Plant response rating, Corn",[3]; 125 g ai/ha,30
same,"Plant response rating, Foxtail, Giant",[4]; 31 g ai/ha,30
same,"Plant response rating, Foxtail, Giant",[4]; 125 g ai/ha,50
same,"Plant response rating, Blackgrass",[5]; 31 g ai/ha,60
same,"Plant response rating, Blackgrass",[5]; 125 g ai/ha,70
same,"Plant response rating, Galium",[6]; 31 g ai/ha,80
same,"Plant response rating, Galium",[6]; 125 g ai/ha,90
same,"Plant response rating, Pigweed",[7]; 31 g ai/ha,90
same,"Plant response rating, Pigweed",[7]; 125 g ai/ha,100
same,"Plant response rating, Kochia",[8]; 31 g ai/ha,50
same,"Plant response rating, Kochia",[8]; 125 g ai/ha,70
same,"Plant response rating, Wheat",[9]; 31 g ai/ha,0
same,"Plant response rating, Wheat",[9]; 125 g ai/ha,30
same,"Plant response rating, Barnyardgrass",[10]; 31 g ai/ha,10
same,"Plant response rating, Barnyardgrass",[10]; 125 g ai/ha,60
same,"Plant response rating, Ducksalad",[11],90
same,"Plant response rating, Rice",[12],20
same,"Plant response rating, Sedge, Umbrella",[13],75
same,"Plant response rating, Barnyardgrass",[14],55
same,"Ryegrass, Italian plant response rating",[15]; 31 g ai/ha,10
same,"Ryegrass, Italian plant response rating",[15]; 125 g ai/ha,40
same,Ragweed plant response rating,[16]; 31 g ai/ha,0
same,Ragweed plant response rating,[16]; 125 g ai/ha,0
same,"Foxtail, Giant plant response rating",[17]; 31 g ai/ha,50
same,"Foxtail, Giant plant response rating",[17]; 125 g ai/ha,90
same,Pigweed plant response rating,[18]; 31 g ai/ha,90
same,Pigweed plant response rating,[18]; 125 g ai/ha,100
same,Kochia plant response rating,[19]; 31 g ai/ha,50
same,Kochia plant response rating,[19]; 125 g ai/ha,100
same,Barnyardgrass plant response rating,"[20]; 31 g ai/ha, 0 to 100 scale (0 no effect, 100 complete control)",10
same,"Plant response rating, Barnyardgrass","[20]; 125 g ai/ha, 0 to 100 scale",70
